Active and inactive are the calls of the source. No cut-off for these calls is given here.
System: HCT-116
Experiment: Cytostatic activity against human HCT116 cells assessed as growth inhibition at 10 uM incubated for 48 hrs by sulforhodamine B assay relative to control
Assay type: functional
Settings: HCT-116, 48 h, read-out: GI

First: O=C(/C=C/c1ccc(Cl)c(Cl)c1)c1cccs1
Second: O=C(/C=C/c1ccc(Cl)nc1)c1cccs1
The inhibition of growth at 10 µM of the first is higher: 39.8% for the first, 35.5% for the second.

First: O=C(/C=C/c1cccs1)c1ccc(Cl)nc1
Second: O=C(/C=C/c1cccs1)c1ccc(Cl)c(Cl)c1
The inhibition of growth at 10 µM of the first is higher: 8.9% for the first, 2.2% for the second.

Going from `O=C(/C=C/c1ccc(Cl)nc1)c1ccc(Cl)cc1Cl` to `O=C(/C=C/c1ccc(Cl)nc1)c1ccc(Cl)c(Cl)c1`, the inhibition of growth at 10 µM falls from 63.3% to 55.1%.

With `O=C(/C=C/c1ccc(Cl)c(Cl)c1)c1ccc(Cl)nc1` the inhibition of growth at 10 µM was 19.3%.

System: K562
Experiment: Cytostatic activity against human K562 cells assessed as growth inhibition at 10 uM incubated for 48 hrs by sulforhodamine B assay relative to control
Assay type: functional
Settings: K562, 48 h, read-out: GI

Going from `O=C(/C=C/c1ccc(Cl)c(Cl)c1)c1cccs1` to `O=C(/C=C/c1ccc(Cl)nc1)c1cccs1`, the inhibition of growth at 10 µM falls from 71.6% to 65.8%.

Compared with `O=C(/C=C/c1cccs1)c1ccc(Cl)nc1`, `O=C(/C=C/c1cccs1)c1ccc(Cl)c(Cl)c1` is lower in inhibition of growth at 10 µM: 2.9% for the first, 1.7% for the second.

First: O=C(/C=C/c1ccc(Cl)nc1)c1ccc(Cl)cc1Cl
Second: O=C(/C=C/c1ccc(Cl)nc1)c1ccc(Cl)c(Cl)c1
The inhibition of growth at 10 µM of the first is higher: 92.3% for the first, 48.3% for the second.

In the case of `O=C(/C=C/c1ccc(Cl)c(Cl)c1)c1ccc(Cl)nc1`, the inhibition of growth at 10 µM is reported as 25.3%.

System: LOX IMVI
Experiment: Cytostatic activity against human LOXIMVI cells assessed as growth inhibition at 10 uM incubated for 48 hrs by sulforhodamine B assay relative to control
Assay type: functional
Settings: not given

With `O=C(/C=C/c1cccs1)c1ccc(Cl)nc1` the “growth inhibition (GI)” value was “inactive”.
In the case of `O=C(/C=C/c1cccs1)c1ccc(Cl)c(Cl)c1`, the “growth inhibition (GI)” value is reported as “inactive”.

Same assay, conditions: read-out: GI

First: O=C(/C=C/c1ccc(Cl)c(Cl)c1)c1cccs1
Second: O=C(/C=C/c1ccc(Cl)nc1)c1cccs1
The inhibition of growth at 10 µM of the first is lower: 45.7% for the first, 85% for the second.

Compared with `O=C(/C=C/c1ccc(Cl)nc1)c1ccc(Cl)cc1Cl`, `O=C(/C=C/c1ccc(Cl)nc1)c1ccc(Cl)c(Cl)c1` is lower in inhibition of growth at 10 µM: 93.5% for the first, 37.6% for the second.

Work on `O=C(/C=C/c1ccc(Cl)c(Cl)c1)c1ccc(Cl)nc1` yielded an inhibition of growth at 10 µM of 21.9%.

System: OVCAR-3
Experiment: Cytostatic activity against human OVCAR3 cells assessed as growth inhibition at 10 uM incubated for 48 hrs by sulforhodamine B assay relative to control
Assay type: functional
Settings: not given

For `O=C(/C=C/c1cccs1)c1ccc(Cl)nc1`, the “growth inhibition (GI)” value was “inactive”.
With `O=C(/C=C/c1cccs1)c1ccc(Cl)c(Cl)c1` the “growth inhibition (GI)” value was “inactive”.

Same assay, conditions: OVCAR-3, 48 h, read-out: GI

First: O=C(/C=C/c1ccc(Cl)c(Cl)c1)c1cccs1
Second: O=C(/C=C/c1ccc(Cl)nc1)c1cccs1
The inhibition of growth at 10 µM of the first is lower: 6.8% for the first, 45.8% for the second.

First: O=C(/C=C/c1ccc(Cl)nc1)c1ccc(Cl)cc1Cl
Second: O=C(/C=C/c1ccc(Cl)nc1)c1ccc(Cl)c(Cl)c1
The inhibition of growth at 10 µM of the first is lower: 21.5% for the first, 43.5% for the second.

`O=C(/C=C/c1ccc(Cl)c(Cl)c1)c1ccc(Cl)nc1` gave an inhibition of growth at 10 µM of 11.2%.

System: CCRF-CEM
Experiment: Cytostatic activity against human CCRF-CEM cells assessed as growth inhibition at 10 uM incubated for 48 hrs by sulforhodamine B assay relative to control
Assay type: functional
Settings: not given

For `O=C(/C=C/c1cccs1)c1ccc(Cl)c(Cl)c1`, the “growth inhibition (GI)” value was “inactive”.

Same assay, conditions: read-out: GI

Going from `O=C(/C=C/c1ccc(Cl)c(Cl)c1)c1cccs1` to `O=C(/C=C/c1ccc(Cl)nc1)c1cccs1`, the inhibition of growth at 10 µM rises from 31.3% to 38.6%.

Going from `O=C(/C=C/c1cccs1)c1ccc(Cl)nc1` to `O=C(/C=C/c1ccc(Cl)c(Cl)c1)c1ccc(Cl)nc1`, the inhibition of growth at 10 µM rises from 8.6% to 15.2%.

Going from `O=C(/C=C/c1ccc(Cl)nc1)c1ccc(Cl)cc1Cl` to `O=C(/C=C/c1ccc(Cl)nc1)c1ccc(Cl)c(Cl)c1`, the inhibition of growth at 10 µM falls from 93% to 26.6%.

System: RPMI-8226
Experiment: Cytostatic activity against human RPMI8226 cells assessed as growth inhibition at 10 uM incubated for 48 hrs by sulforhodamine B assay relative to control
Assay type: functional
Settings: not given

With `O=C(/C=C/c1cccs1)c1ccc(Cl)c(Cl)c1` the “growth inhibition (GI)” value was “inactive”.

Same assay, conditions: RPMI-8226, 48 h, read-out: GI

Compared with `O=C(/C=C/c1ccc(Cl)c(Cl)c1)c1cccs1`, `O=C(/C=C/c1cccs1)c1ccc(Cl)nc1` is higher in inhibition of growth at 10 µM: 66.9% for the first, 95.8% for the second.

System: SW-620
Experiment: Cytostatic activity against human SW620 cells assessed as growth inhibition at 10 uM incubated for 48 hrs by sulforhodamine B assay relative to control
Assay type: functional
Settings: not given

For `O=C(/C=C/c1cccs1)c1ccc(Cl)nc1`, the “growth inhibition (GI)” value was “inactive”.

Same assay, conditions: SW-620, 48 h, read-out: GI

Going from `O=C(/C=C/c1ccc(Cl)c(Cl)c1)c1cccs1` to `O=C(/C=C/c1ccc(Cl)nc1)c1cccs1`, the inhibition of growth at 10 µM rises from 29.6% to 47.6%.

Compared with `O=C(/C=C/c1cccs1)c1ccc(Cl)c(Cl)c1`, `O=C(/C=C/c1ccc(Cl)nc1)c1ccc(Cl)c(Cl)c1` is higher in inhibition of growth at 10 µM: 5.5% for the first, 40.1% for the second.

Compared with `O=C(/C=C/c1ccc(Cl)nc1)c1ccc(Cl)cc1Cl`, `O=C(/C=C/c1ccc(Cl)c(Cl)c1)c1ccc(Cl)nc1` is lower in inhibition of growth at 10 µM: 100% for the first, 17.6% for the second.

System: MCF7
Experiment: Cytostatic activity against human MCF7 cells assessed as growth inhibition at 10 uM incubated for 48 hrs by sulforhodamine B assay relative to control
Assay type: functional
Settings: MCF7, 48 h, read-out: GI

Compared with `O=C(/C=C/c1ccc(Cl)c(Cl)c1)c1cccs1`, `O=C(/C=C/c1ccc(Cl)nc1)c1cccs1` is lower in inhibition of growth at 10 µM: 87.1% for the first, 84.3% for the second.

Compared with `O=C(/C=C/c1cccs1)c1ccc(Cl)nc1`, `O=C(/C=C/c1cccs1)c1ccc(Cl)c(Cl)c1` is higher in inhibition of growth at 10 µM: 32.3% for the first, 72.5% for the second.

Going from `O=C(/C=C/c1ccc(Cl)nc1)c1ccc(Cl)cc1Cl` to `O=C(/C=C/c1ccc(Cl)nc1)c1ccc(Cl)c(Cl)c1`, the inhibition of growth at 10 µM falls from 82.9% to 66.4%.

Compound `O=C(/C=C/c1ccc(Cl)c(Cl)c1)c1ccc(Cl)nc1` has an inhibition of growth at 10 µM of 69.8%.

Organism: Homo sapiens
Experiment: Inhibition of C-terminal His6-tagged human recombinat FTase expressed in Escherichia coli BL21 RIL (DE3) cells using Dansyl-GCVLS peptide and farnesyl pyrophosphate as substrate at 100 uM measured for 15 mins by fluorimetric analysis relative to control
Settings: not given

First: O=C(/C=C/c1ccc(Cl)c(Cl)c1)c1cccs1
Second: O=C(/C=C/c1ccc(Cl)nc1)c1cccs1
The inhibition of the first is higher: 47% for the first, 28% for the second.

Going from `O=C(/C=C/c1cccs1)c1ccc(Cl)c(Cl)c1` to `O=C(/C=C/c1ccc(Cl)nc1)c1ccc(Cl)c(Cl)c1`, the inhibition falls from 98% to 54%.

Compared with `O=C(/C=C/c1ccc(Cl)nc1)c1ccc(Cl)cc1Cl`, `O=C(/C=C/c1ccc(Cl)c(Cl)c1)c1ccc(Cl)nc1` is lower in inhibition: 53% for the first, 22% for the second.

System: SR
Experiment: Cytostatic activity against human SR cells assessed as growth inhibition at 10 uM incubated for 48 hrs by sulforhodamine B assay relative to control
Assay type: functional
Settings: not given

For `O=C(/C=C/c1cccs1)c1ccc(Cl)c(Cl)c1`, the “growth inhibition (GI)” value was “inactive”.

Same assay, conditions: read-out: GI

First: O=C(/C=C/c1ccc(Cl)c(Cl)c1)c1cccs1
Second: O=C(/C=C/c1cccs1)c1ccc(Cl)nc1
The inhibition of growth at 10 µM of the first is higher: 78% for the first, 17.5% for the second.

System: not listed separately
Experiment: Inhibition of C-terminal His6-tagged human recombinat FTase expressed in Escherichia coli BL21 RIL (DE3) cells using Dansyl-GCVLS peptide and farnesyl pyrophosphate as substrate measured for 15 mins by fluorimetric analysis
Settings: not given

Compound `O=C(/C=C/c1cccs1)c1ccc(Cl)c(Cl)c1` has an IC50 of 7.4 µM.

System: SW-620
Experiment: Cytotoxicity against human SW620 cells assessed as growth inhibition of preexisting tumor cells at 10 uM incubated for 48 hrs by sulforhodamine B assay relative to control
Assay type: functional
Settings: SW-620, 48 h, read-out: GI

With `O=C(/C=C/c1ccc(Cl)nc1)c1ccc(Cl)cc1Cl` the inhibition of growth at 10 µM was 33.2%.

System: KM12
Experiment: Cytostatic activity against human KM12 cells assessed as growth inhibition at 10 uM incubated for 48 hrs by sulforhodamine B assay relative to control
Assay type: functional
Settings: not given

In the case of `O=C(/C=C/c1cccs1)c1ccc(Cl)nc1`, the “growth inhibition (GI)” value is reported as “inactive”.

Same assay, conditions: KM12, 48 h, read-out: GI

Compared with `O=C(/C=C/c1ccc(Cl)c(Cl)c1)c1cccs1`, `O=C(/C=C/c1ccc(Cl)nc1)c1cccs1` is higher in inhibition of growth at 10 µM: 15.4% for the first, 57.8% for the second.

Compared with `O=C(/C=C/c1cccs1)c1ccc(Cl)c(Cl)c1`, `O=C(/C=C/c1ccc(Cl)nc1)c1ccc(Cl)c(Cl)c1` is higher in inhibition of growth at 10 µM: 2.8% for the first, 44.4% for the second.

Going from `O=C(/C=C/c1ccc(Cl)nc1)c1ccc(Cl)cc1Cl` to `O=C(/C=C/c1ccc(Cl)c(Cl)c1)c1ccc(Cl)nc1`, the inhibition of growth at 10 µM rises from 23.5% to 32.4%.

System: NCI-H522
Experiment: Cytostatic activity against human NCI-H522 cells assessed as growth inhibition at 10 uM incubated for 48 hrs by sulforhodamine B assay relative to control
Assay type: functional
Settings: NCI-H522, 48 h, read-out: GI

Going from `O=C(/C=C/c1ccc(Cl)c(Cl)c1)c1cccs1` to `O=C(/C=C/c1ccc(Cl)nc1)c1cccs1`, the inhibition of growth at 10 µM rises from 24.7% to 37.2%.

Going from `O=C(/C=C/c1cccs1)c1ccc(Cl)nc1` to `O=C(/C=C/c1cccs1)c1ccc(Cl)c(Cl)c1`, the inhibition of growth at 10 µM falls from 18% to 8.6%.

Compared with `O=C(/C=C/c1ccc(Cl)nc1)c1ccc(Cl)cc1Cl`, `O=C(/C=C/c1ccc(Cl)nc1)c1ccc(Cl)c(Cl)c1` is lower in inhibition of growth at 10 µM: 61.3% for the first, 45.8% for the second.

With `O=C(/C=C/c1ccc(Cl)c(Cl)c1)c1ccc(Cl)nc1` the inhibition of growth at 10 µM was 17%.

From ChEMBL document CHEMBL4619725, “Ultrasounds-mediated 10-seconds synthesis of chalcones as potential farnesyltransferase inhibitors” (Bioorg Med Chem Lett, 2020)
